Assay results: patent US10870647B2, “Imidazopyridine derivative, method for preparing same, and pharmaceutical composition containing same as active ingredient for preventing or treating cancer” (DAEGU-GYEONGBUK MEDICAL INNOVATION FOUNDATION, priority 2016, dated 2020)

Key:
Assay in all cases: Kinase selectivity, scanMAX Kinase assay panel (DiscoverX), % control at 1 uM
Assay type in all cases: binding
[1] = biological target: T1, scanMAX Kinase assay panel (Homo sapiens, UniProt Q9H093); conditions: SNARK; 1 uM; read-out: Percent Control (%)
T1 construct: purchased DiscoverX
T1 sequence (Q9H093 1-628): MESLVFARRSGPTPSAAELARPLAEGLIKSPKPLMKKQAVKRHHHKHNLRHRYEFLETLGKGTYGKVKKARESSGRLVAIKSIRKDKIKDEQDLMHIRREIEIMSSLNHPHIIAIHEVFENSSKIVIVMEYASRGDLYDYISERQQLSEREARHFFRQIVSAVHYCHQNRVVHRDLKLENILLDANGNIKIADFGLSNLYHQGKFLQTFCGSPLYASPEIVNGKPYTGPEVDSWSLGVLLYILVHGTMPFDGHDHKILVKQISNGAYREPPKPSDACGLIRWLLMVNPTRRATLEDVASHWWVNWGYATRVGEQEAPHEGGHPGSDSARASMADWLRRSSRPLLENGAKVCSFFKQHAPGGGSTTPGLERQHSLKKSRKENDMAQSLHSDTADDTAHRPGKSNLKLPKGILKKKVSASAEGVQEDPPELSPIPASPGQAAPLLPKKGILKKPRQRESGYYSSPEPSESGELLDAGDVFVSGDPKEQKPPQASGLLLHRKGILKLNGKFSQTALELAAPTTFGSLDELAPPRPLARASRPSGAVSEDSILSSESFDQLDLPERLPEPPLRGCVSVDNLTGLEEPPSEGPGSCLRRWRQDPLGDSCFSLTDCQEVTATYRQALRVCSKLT
In short: (§1)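 A single concentration of 1 uM, in DMSO, is applied across the kinase panel. Activity against an individual enzyme is assigned where % control is less than 35.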

[2] = biological target: T2, scanMAX Kinase assay panel (Homo sapiens, UniProt P42345); conditions: MTOR; 1 uM; read-out: Percent Control (%)
T2 construct: purchased DiscoverX
In short: as §1

[3] = biological target: T3, scanMAX Kinase assay panel (Homo sapiens, UniProt Q13546); conditions: RIPK1; 1 uM; read-out: Percent Control (%)
T3 construct: purchased DiscoverX
T3 sequence (Q13546 1-671): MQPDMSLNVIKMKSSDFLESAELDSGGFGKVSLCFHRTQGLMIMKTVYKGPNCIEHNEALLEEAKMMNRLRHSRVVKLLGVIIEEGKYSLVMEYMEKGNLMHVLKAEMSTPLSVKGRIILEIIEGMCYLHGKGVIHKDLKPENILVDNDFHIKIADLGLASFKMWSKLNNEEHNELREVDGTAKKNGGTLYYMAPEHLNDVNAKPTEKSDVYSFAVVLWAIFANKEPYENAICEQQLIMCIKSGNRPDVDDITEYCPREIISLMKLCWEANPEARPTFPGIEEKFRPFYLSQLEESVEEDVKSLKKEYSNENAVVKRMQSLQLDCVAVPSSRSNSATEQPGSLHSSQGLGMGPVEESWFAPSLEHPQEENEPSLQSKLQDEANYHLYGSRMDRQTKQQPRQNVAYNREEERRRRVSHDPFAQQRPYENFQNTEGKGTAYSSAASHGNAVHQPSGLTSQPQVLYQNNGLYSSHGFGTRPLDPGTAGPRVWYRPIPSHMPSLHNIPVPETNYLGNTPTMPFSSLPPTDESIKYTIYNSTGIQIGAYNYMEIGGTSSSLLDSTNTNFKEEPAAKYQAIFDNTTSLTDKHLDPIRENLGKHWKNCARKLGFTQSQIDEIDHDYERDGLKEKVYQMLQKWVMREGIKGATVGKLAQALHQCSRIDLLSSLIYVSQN
In short: as §1

[4] = biological target: T4, scanMAX Kinase assay panel (Homo sapiens, UniProt Q99755); conditions: PIP5K1A; 1 uM; read-out: Percent Control (%)
T4 construct: purchased DiscoverX
In short: as §1

[5] = biological target: T5, scanMAX Kinase assay panel (Homo sapiens, UniProt Q9C098); conditions: DCAMKL3; 1 uM; read-out: Percent Control (%)
T5 construct: purchased DiscoverX
In short: as §1

[6] = biological target: T6, scanMAX Kinase assay panel (Homo sapiens, UniProt O75116); conditions: ROCK2; 1 uM; read-out: Percent Control (%)
T6 construct: purchased DiscoverX
In short: as §1

[7] = biological target: T7, scanMAX Kinase assay panel (Homo sapiens, UniProt Q9Y3S1); conditions: WNK2; 1 uM; read-out: Percent Control (%)
T7 construct: purchased DiscoverX
In short: as §1

[8] = biological target: T8, scanMAX Kinase assay panel (Homo sapiens, UniProt Q8N5S9); conditions: CAMKK1; 1 uM; read-out: Percent Control (%)
T8 construct: purchased DiscoverX
In short: as §1

[9] = biological target: T9, scanMAX Kinase assay panel (Homo sapiens, UniProt Q15835); conditions: GRK1; 1 uM; read-out: Percent Control (%)
T9 construct: purchased DiscoverX
T9 sequence (Q15835 1-563): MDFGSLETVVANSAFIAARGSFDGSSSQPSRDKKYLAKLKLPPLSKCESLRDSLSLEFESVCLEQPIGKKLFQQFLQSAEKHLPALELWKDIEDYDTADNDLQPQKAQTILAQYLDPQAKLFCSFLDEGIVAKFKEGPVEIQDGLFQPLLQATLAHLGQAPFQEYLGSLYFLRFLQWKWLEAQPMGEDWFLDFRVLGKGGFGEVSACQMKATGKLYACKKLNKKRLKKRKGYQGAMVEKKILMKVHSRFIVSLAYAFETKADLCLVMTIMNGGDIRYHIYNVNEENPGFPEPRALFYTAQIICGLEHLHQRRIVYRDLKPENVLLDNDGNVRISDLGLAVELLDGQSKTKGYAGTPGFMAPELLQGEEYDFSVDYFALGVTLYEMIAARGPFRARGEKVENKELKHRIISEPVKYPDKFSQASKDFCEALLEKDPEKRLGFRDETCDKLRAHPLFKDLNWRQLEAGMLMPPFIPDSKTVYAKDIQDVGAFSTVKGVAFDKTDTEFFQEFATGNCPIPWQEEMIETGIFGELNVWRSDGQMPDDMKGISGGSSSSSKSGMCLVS
In short: as §1

[10] = biological target: T10, scanMAX Kinase assay panel (Homo sapiens, UniProt Q9Y2K2); conditions: QSK; 1 uM; read-out: Percent Control (%)
T10 construct: purchased DiscoverX
In short: as §1

[11] = biological target: T11, scanMAX Kinase assay panel (Homo sapiens, UniProt Q15375); conditions: EPHA7; 1 uM; read-out: Percent Control (%)
T11 construct: purchased DiscoverX
In short: as §1

T7 sequence (Q9Y3S1 whole entry): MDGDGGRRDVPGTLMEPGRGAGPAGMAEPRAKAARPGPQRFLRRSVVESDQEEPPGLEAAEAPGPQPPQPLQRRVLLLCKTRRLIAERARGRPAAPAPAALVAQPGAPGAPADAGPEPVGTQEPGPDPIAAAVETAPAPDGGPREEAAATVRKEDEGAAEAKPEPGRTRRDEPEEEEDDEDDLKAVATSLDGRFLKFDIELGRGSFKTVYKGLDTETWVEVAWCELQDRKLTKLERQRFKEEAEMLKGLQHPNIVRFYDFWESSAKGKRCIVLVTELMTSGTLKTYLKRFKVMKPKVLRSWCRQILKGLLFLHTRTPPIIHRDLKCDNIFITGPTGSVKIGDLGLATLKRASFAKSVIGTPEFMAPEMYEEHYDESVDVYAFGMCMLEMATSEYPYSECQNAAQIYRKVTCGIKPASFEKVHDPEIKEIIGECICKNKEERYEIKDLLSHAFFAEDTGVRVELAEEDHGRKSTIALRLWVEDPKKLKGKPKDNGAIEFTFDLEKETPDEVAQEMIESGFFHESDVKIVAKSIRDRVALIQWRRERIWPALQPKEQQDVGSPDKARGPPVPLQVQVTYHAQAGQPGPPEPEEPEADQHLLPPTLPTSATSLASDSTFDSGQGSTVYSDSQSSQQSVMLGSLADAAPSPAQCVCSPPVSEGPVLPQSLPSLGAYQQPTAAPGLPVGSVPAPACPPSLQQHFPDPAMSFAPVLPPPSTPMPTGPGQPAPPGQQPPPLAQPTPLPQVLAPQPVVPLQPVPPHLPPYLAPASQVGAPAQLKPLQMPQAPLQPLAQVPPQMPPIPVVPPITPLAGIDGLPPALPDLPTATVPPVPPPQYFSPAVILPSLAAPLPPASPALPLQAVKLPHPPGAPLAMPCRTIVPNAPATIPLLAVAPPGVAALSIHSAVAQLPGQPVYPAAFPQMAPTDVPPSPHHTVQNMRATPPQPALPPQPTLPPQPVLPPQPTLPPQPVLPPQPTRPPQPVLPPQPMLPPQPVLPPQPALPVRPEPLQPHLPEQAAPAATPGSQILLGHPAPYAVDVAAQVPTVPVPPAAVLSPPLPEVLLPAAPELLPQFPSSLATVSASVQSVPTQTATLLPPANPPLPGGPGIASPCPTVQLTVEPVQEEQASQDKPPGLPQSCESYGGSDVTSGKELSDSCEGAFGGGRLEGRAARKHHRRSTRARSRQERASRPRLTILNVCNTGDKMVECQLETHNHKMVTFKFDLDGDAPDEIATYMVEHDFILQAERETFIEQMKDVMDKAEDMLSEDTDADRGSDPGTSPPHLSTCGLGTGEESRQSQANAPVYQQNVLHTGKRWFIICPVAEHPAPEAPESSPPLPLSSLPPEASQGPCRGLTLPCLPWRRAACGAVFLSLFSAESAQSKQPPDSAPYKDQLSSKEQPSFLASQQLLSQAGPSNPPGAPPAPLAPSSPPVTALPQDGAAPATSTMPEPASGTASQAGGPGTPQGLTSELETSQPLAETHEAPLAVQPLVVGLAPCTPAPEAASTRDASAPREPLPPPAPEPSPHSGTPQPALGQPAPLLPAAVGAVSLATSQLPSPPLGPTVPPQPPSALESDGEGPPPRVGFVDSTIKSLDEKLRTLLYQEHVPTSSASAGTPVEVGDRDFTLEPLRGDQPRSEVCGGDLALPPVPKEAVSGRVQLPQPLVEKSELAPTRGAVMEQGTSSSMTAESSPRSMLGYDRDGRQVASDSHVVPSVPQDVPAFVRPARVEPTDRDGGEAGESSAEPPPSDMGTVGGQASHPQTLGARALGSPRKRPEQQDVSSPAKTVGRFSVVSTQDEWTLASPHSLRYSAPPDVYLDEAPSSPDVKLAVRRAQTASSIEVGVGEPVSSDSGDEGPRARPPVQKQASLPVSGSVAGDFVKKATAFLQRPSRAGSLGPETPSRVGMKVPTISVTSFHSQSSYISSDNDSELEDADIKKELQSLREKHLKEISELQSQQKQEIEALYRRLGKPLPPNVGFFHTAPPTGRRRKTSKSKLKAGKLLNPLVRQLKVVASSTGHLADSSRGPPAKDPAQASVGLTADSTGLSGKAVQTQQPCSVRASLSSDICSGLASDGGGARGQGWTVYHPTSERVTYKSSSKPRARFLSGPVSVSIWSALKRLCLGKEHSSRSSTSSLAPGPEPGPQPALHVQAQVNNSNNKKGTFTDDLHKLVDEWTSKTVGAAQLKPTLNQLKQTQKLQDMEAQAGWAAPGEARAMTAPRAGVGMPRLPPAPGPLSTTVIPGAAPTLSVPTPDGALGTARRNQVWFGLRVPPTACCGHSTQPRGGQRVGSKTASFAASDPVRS
T11 sequence (Q15375 28-998): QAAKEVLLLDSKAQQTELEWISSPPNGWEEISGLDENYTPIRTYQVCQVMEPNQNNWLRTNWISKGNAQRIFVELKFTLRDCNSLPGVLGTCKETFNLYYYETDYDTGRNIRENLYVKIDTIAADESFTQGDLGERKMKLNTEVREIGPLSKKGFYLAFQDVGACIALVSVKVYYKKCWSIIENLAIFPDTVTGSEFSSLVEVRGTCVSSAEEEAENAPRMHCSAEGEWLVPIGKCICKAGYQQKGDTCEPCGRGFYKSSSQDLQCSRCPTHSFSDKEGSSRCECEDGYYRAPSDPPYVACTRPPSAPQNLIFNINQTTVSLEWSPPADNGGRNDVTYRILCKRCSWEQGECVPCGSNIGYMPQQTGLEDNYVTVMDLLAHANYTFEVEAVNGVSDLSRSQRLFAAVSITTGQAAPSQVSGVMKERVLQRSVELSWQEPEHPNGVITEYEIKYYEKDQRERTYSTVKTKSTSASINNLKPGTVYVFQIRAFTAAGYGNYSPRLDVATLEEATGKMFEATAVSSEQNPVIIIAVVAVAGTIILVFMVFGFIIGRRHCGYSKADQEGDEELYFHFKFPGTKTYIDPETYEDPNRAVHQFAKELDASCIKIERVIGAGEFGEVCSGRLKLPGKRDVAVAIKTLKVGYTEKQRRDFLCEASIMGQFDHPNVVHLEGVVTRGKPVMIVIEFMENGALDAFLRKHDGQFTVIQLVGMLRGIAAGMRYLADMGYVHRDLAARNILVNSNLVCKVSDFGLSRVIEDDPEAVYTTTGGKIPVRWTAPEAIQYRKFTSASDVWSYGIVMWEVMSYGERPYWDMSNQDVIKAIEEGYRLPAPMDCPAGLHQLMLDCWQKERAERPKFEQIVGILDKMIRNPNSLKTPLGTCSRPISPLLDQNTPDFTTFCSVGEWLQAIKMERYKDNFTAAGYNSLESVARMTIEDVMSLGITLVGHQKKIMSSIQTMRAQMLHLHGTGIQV
T10 sequence (Q9Y2K2 whole entry): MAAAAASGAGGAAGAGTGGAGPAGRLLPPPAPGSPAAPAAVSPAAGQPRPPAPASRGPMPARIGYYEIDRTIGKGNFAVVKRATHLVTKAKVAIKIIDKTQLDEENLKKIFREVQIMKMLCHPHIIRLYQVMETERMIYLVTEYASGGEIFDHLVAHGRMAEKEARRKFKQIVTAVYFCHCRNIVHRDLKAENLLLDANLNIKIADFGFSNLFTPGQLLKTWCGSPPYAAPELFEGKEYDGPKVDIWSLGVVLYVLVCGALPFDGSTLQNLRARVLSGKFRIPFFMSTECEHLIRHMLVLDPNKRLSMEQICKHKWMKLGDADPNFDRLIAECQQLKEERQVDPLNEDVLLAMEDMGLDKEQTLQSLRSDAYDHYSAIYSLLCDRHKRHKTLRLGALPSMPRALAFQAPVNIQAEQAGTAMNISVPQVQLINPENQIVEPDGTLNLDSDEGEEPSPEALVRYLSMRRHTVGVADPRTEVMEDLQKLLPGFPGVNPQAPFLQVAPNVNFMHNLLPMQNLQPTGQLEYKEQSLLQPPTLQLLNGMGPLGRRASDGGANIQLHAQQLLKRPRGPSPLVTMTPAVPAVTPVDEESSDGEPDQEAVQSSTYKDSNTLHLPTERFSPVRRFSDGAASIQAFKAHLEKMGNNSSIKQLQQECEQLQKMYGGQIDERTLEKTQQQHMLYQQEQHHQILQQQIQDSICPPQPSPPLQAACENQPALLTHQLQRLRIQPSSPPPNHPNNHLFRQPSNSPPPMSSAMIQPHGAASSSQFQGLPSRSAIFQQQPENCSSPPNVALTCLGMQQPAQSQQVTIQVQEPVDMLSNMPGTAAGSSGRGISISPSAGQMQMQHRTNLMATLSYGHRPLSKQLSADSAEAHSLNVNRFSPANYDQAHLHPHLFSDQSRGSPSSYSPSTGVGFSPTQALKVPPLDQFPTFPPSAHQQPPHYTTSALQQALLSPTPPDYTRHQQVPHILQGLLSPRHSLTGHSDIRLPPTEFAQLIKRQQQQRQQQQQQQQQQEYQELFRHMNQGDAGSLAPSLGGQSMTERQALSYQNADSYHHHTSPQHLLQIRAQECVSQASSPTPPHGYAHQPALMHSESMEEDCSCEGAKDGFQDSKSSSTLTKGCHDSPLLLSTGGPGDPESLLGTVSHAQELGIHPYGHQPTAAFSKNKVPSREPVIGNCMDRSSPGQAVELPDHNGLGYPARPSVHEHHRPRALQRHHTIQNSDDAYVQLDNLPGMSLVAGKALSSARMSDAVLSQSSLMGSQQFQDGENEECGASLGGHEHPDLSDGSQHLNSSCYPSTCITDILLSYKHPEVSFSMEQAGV
T4 sequence (Q99755 whole entry): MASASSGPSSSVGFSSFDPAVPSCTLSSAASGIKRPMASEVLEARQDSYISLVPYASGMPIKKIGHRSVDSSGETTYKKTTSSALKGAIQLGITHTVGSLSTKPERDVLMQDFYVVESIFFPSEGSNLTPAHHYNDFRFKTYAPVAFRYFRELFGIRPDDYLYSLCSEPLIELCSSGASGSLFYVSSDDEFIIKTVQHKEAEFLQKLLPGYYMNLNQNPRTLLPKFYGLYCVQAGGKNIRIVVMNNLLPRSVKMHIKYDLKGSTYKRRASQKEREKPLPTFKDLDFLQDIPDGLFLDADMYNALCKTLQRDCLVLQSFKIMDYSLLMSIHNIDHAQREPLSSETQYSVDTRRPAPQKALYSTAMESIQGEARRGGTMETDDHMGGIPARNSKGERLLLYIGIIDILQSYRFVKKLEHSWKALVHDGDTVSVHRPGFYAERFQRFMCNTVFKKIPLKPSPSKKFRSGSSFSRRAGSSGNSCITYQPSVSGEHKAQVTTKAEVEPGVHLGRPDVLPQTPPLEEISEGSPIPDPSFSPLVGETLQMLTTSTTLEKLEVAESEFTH

SMILES	remaining binding at 1 µM [1]	remaining binding at 1 µM [2]	remaining binding at 1 µM [3]	remaining binding at 1 µM [4]	remaining binding at 1 µM [5]	remaining binding at 1 µM [6]	remaining binding at 1 µM [7]	remaining binding at 1 µM [8]	remaining binding at 1 µM [9]	remaining binding at 1 µM [10]	remaining binding at 1 µM [11]
Cc1ccc(NC(=O)C2(C(=O)Nc3ccc(F)cc3)CC2)cc1C#Cc1cnc2c(Nc3cnn(C(C)C)c3)cccn12 [Example 78]	68%	91%	19%	98%	100%	100%	100%	100%	99%	100%	100%
Cc1cn(-c2cc(NC(=O)c3ccc(C)c(C#Cc4cnc5c(Nc6cnn(C)c6)cccn45)c3)cc(C(F)(F)F)c2)cn1 [Example 12, 4-methyl-N-(3-(4-methyl-1H-imidazol-1-yl)-5-(trifluoromethyl)phenyl)-3-((8-((1-methyl-1H-pyrazol-4-yl)amino)imidazo[1,2-a]pyridin-3-yl)ethynyl)benzamide]	100%	66%	5%	84%	88%	100%	100%	81%	85%	97%	69%
Cc1ccc(C(=O)Nc2ccc(CN3CCN(C)CC3)c(C(F)(F)F)c2)cc1C#Cc1cnc2c(Nc3cnn(C)c3)cccn12 [Example 1, 4-methyl-3-((8-((1-methyl-1H-pyrazol-4-yl)amino)imidazo[1,2-a]pyridin-3-yl)ethynyl)-N-(4-((4-methylpiperazin-1-yl)methyl)-3-(trifluoromethyl)phenyl)benzamide]	73%	77%	0%	94%	98%	15%	82%	23%	65%	89%	5%
